Source: patent US20050032713A1, “Platelet-activating factor antagonists as analgesic, anti-inflammatory, uterine contraction inhibiting, and anti-tumor agents” (priority 2002, published 2005)
Entries after “also recorded” stand apart in the source; their conditions may differ. *1 amine or outer side, *2 acyl side, *3 side chain or, on linkers, in order; H or OH if unused. Where a SMILES comes first, the peptide text is derived from it. Bridges are numbered along the chain shown (N, C = ends). Roman numbers before positions name the chains, in order. [ ]: non-standard residue; d: D form. Actinocin(9to1) = Cc1c2oc3c(C)ccc(C(=O)[*:1])c3nc-2c(C(=O)[*:2])c(N)c1=O; NMeV = CN[C@H](C(=O)O)C(C)C; Sar = CNCC(=O)O

What was measured:
Type in all cases: cell-based, rat
[1] = tested on: astrocyte-enriched cortical cell cultures; assay: PGE2 release (ELISA) from astrocyte-enriched cortical cell cultures exposed to PAF analogs, related lipids or AA; conditions: for PGE2 release into the conditioned media: various concentrations; for concentration giving peak PGE2 release: higher and lower concentrations elicited less release
Method: (§1) All experimental protocols were approved by the Massachusetts Institute of Technology institutional review committee and meet the guidelines of the National Institutes of Health. Dissociated astrocytes were cultured from cortices of postnatal day 1-2 rat pups (as described by K. D. McCarthy, et al., Preparation of separate astroglial and oligodendroglial cell cultures from rat cerebral tissue, J. Cell Biol. 85 (1980) 890-902, with minor modifications R. K. K. Lee, et al., Metabolic glutamate receptors increase amyloid precursor protein processing in astrocytes: inhibition by cyclic AMP, J. Neurochem. 68 (1997) 1830-1835.) In brief, cells from dissociated cortices were plated onto poly-L-lysine coated 35- or 100 mm culture dishes. The initial culture media, minimal essential medium (MEM, Gibco-Life Technologies; Rockville, Md.) containing 15% horse serum (BioWhittaker; Walkersville, Md.), were aspirated 2-5 h after plating to remove unattached cells and debris, and replaced with MEM containing 5% fetal bovine serum (FBS, BioWhittaker; Walkersville, Md.). Half the medium was replaced with MEM/5% FBS twice weekly. Astrocytes were kept at 37° C. in a humidified 5% CO2/95% air incubator for 9-15 days, by which time the cultures were confluent and could be used for experiments.
(§2) Mc-PAF (Biomol; Plymouth Meeting, PA) was dissolved in methanol at a stock concentration of 10 mM. PAF-16, PAF-18, lyso-PAF, AA (Cayman Chemicals), lyso-PC and PC (Sigma) were dissolved in ethanol at stock concentrations of 10 mM. All stock solutions of lipids were stored at −80° C. and were used within 6 weeks of reconstitution. BN 52021 and CV 6209 (Biomol) were dissolved in ethanol. These PAF antagonists were stored at −20° C. in stock concentrations of 100 mM. BN 50730 (Biomeasure; Milford, Mass.) was dissolved in 45% hydroxy-B-cyclodextrin (HBC). All agents were diluted in warned serum-free medium prior to cell stimulation. Equal amounts of vehicle was added to control cells.
(§3) Cells used for all experiments were established in vitro 9-15 days prior to use in experiments and were over 95% confluent. Serum-containing media were changed every 3-4 days. Cells were serum-deprived 24 hours prior to experimental treatments. Where treatment with PAF antagonists is indicated, these compounds were added 30 minutes prior to the addition of other agents.
(§4) PGE2 levels were measured by ELISA according to manufacturer's instructions (Cayman Chemicals, Ann Arbor, Mich.). Since the amount of PGE2 in fresh medium was negligible, (J. Luo, et al., Transforming growth factor B1 regulates the expression of cyclooxygenase in cultured cortical astrocytes and neurons, J. Neurochem. 71 (1998) 526-534), direct assays of the PGE2 concentration in cell-conditioned medium was used as a measurement of PGE2 secretion by cultured cells. Results were derived from at least 3 separate experiments, assayed in duplicate or triplicate (n=6-8). The reliable detection limit of this assay (i.e. sensitivity) averaged 14+/−6 pg of PGE2.

[2] = tested on: primary cortical astrocytes; assay: Effect of COX inhibitors on mc-PAF-induced PGE2 release from primary astrocytes (Example 3)
Method: Mc-PAF (Cayman Chemical, Ann Arbor, Mich.) was dissolved in ethanol at a stock concentration of 10 mM. Indomethacin, piroxicam, NS-398 (Biomol; Plymouth Meeting, Mass.), and SC-560 (Cayman Chemical) were dissolved in 45% hydroxy-β-cyclodextrin (HBC; Sigma, St. Louis, Mo.). Cells were serum-deprived for 24 hrs prior to experimental treatments to induce quiescence. Where treatment with inhibitors is indicated, these compounds were added 30 min prior to the addition of mc-PAF.
Direct assay of the PGE2 concentration in cell-conditioned medium was used as an index of PGE2 secretion by primary astrocytes. PGE2 levels were measured by ELISA according to manufacturer's instructions (Cayman Chemicals, Ann Arbor, Mich.), as described.
Results were derived from at least 3 separate experiments, assayed in duplicate or triplicate (n=6−8). Data were expressed as means+/−SEMs. Statistical analyses were performed using ANOVAs for comparisons between groups, followed by Fischer's PLSD post hoc comparisons by means contrast. p values <0.05 were considered statistically significant.

[3] = tested on: astrocyte-enriched cortical cell cultures; assay: Effect of PAF antagonists on mc-PAF-, lyso-PAF- and AA-induced PGE2 release from astrocytes; conditions: for mc-PAF-induced PGE2 release: antagonist added 30 min before mc-PAF (1 μM), 30 min, BN 50730 0.1-100 μM, BN 52021 and CV 6209 1-50 μM; for PGE2 release, antagonist administered alone: no mc-PAF
Method: as §1, §2, §3, §4

[4] = 10, 1, 0.1, and 0.01 μM, 30 min
[5] = various inhibitor concentrations (indomethacin 1, 10, and 50 μM), 30 min prior to mc-PAF (0.1 uM) for 30 min
[6] = pre-treatment, actinomycin D 5 μg/ml, cyclohexamide 10 μg/ml, data not shown

Molecule: phosphatidylcholine [PC]
- PGE2 release [1, 4]: had no effect

Molecule: CCCCC/C=C\C/C=C\C/C=C\C/C=C\CCCC(=O)O [AA, arachidonic acid]
- PGE2 release ([1]; AA 0.01-10 μM, 30 minutes): increased PGE2 release
- PGE2 release on co-administration with mc-PAF ([1]; high AA concentration 10 μM with mc-PAF, 30 min): no synergism
- PGE2 release on co-administration with mc-PAF ([1]; low AA concentration 0.01 μM with mc-PAF (0.1, 1 or 10 μM), 30 min): additive increase

Molecule: COc1ccc2c(c1)c(CC(=O)O)c(C)n2C(=O)c1ccc(Cl)cc1 [indomethacin]
- basal PGE2 release ([2]; indomethacin 1, 10, and 50 μM): without affecting basal PGE2 release
- mc-PAF-induced PGE2 release [2, 5]: attenuated; also recorded: completely blocked

Molecule: CS(=O)(=O)Nc1ccc([N+](=O)[O-])cc1OC1CCCCC1 [NS-398]
- basal PGE2 release ([2]; NS-398 highest concentrations, 10 and 50 μM): prevented basal PGE2 release
- mc-PAF-induced PGE2 release [2, 5]: completely abolished; also recorded: completely blocked

Molecule: CCCCCCCCCCCCCCCCCCOC[C@H](COP(=O)([O-])OCC[N+](C)(C)C)OC(C)=O [PAF-18]
- PGE2 release into the conditioned media ([1]; 30 min, 37° C.): concentration-dependent increases
- concentration giving peak PGE2 release ([1]; 30 min): 0.1 µM

Molecule: lyso-phosphatidylcholine [lyso-PC]
- PGE2 release [1, 4]: had no effect

Molecule: CCCCCCCCCCCCCCCCOC[C@@H](O)COP(=O)([O-])OCC[N+](C)(C)C [lyso-PAF]
- concentration at which PGE2 release was significantly increased ([1]; 30 min, 37° C.): 10 µM
- PGE2 release into the conditioned media ([1]; 30 min, 37° C.): concentration-dependent increases

Molecule: CCCCCCCCCCCCCCCCCCNC(=O)OCC(COC(=O)N(Cc1cccc[n+]1CC)C(C)=O)OC (stereo not drawn) [CV 6209]
- mc-PAF-induced PGE2 release [3]: no significant effect; also recorded: do not attenuate
- mc-PAF-induced PGE2 release ([3]; listed as CV-6209): did not significantly influence
- AA-induced PGE2 release ([3]; antagonist added 30 min prior): had no effect
- lyso-PAF-induced PGE2 release ([3]; antagonist added 30 min prior): had no effect
- PGE2 release, antagonist administered alone [3]: PGE2 release was increased
- PGE2 release, antagonist administered alone ([3]; listed as CV-6209): increased PGE2 release

Molecule: CCCCCCCCCCCCCCCCOC[C@H](COP(=O)([O-])OCC[N+](C)(C)C)OC(C)=O [PAF-16]
- PGE2 release into the conditioned media ([1]; 30 min, 37° C.): concentration-dependent increases
- concentration giving peak PGE2 release ([1]; 30 min): 0.1 µM

Molecule: CN1C(C(=O)Nc2ccccn2)=C(O)c2ccccc2S1(=O)=O [piroxicam]
- mc-PAF-induced PGE2 release ([2]; piroxicam 50 μM, effect not statistically significant): attenuated some of this PGE2 release
- mc-PAF-induced PGE2 release ([2]; piroxicam 1 or 10 μM, 30 min prior to mc-PAF (0.1 uM)): had no effect
- mc-PAF-induced PGE2 release [2, 5]: did not significantly do so; also recorded: minimal influence

Molecule: COc1ccc(-n2nc(C(F)(F)F)cc2-c2ccc(Cl)cc2)cc1 [SC-560]
- mc-PAF-induced PGE2 release [2, 5]: did not significantly influence; also recorded: did not significantly do so; also recorded: minimal influence

Molecule: C[C@@H]1C[C@@H]([C@H](O)CC2CC(=O)NC(=O)C2)C(=O)[C@@H](C)C1 [cyclohexamide]
- mc-PAF-induced PGE2 release [2, 6]: had no effect

Molecule: Cc1c2oc3c(C)ccc(C(=O)N[C@@H]4C(=O)N[C@H](C(C)C)C(=O)N5CCC[C@H]5C(=O)N(C)CC(=O)N(C)[C@@H](C(C)C)C(=O)O[C@@H]4C)c3nc-2c(C(=O)N[C@@H]2C(=O)N[C@H](C(C)C)C(=O)N3CCC[C@H]3C(=O)N(C)CC(=O)N(C)[C@@H](C(C)C)C(=O)O[C@@H]2C)c(N)c1=O [actinomycin D] (I: T[dV]P[Sar][NMeV] / II: T[dV]P[Sar][NMeV]; ester I:1-I:C, II:1-II:C; linker I:N-II:N via Actinocin(9to1))
- mc-PAF-induced PGE2 release [2, 6]: had no effect
